Data from ChEMBL document CHEMBL5506069, “A Unique Hybridization Route to Access Hydrazylnaphthalimidols as Novel Structural Scaffolds of Multitargeting Broad-Spectrum Antifungal Candidates” (J Med Chem, 2024).
In brackets after ≈: the same amount, converted by molar mass. Activity calls are given as the source filed them. The rule behind the calls is not given here.

Assays:
Candida albicans [1] = assay: Antifungal activity against Candida albicans assessed as inhibition of fungal growth incubated for 24 hrs by CLSI based microbroth dilution method; type: functional
Candida albicans [2] = assay: Antifungal activity against Candida albicans ATCC 90023 assessed as inhibition of fungal growth incubated for 24 hrs by CLSI based microbroth dilution method; type: functional
Aspergillus fumigatus [3] = assay: Antifungal activity against Aspergillus fumigatus assessed as inhibition of fungal growth incubated for 24 hrs by CLSI based microbroth dilution method; type: functional
Candida tropicalis = assay: Antifungal activity against Candida tropicalis assessed as inhibition of fungal growth incubated for 24 hrs by CLSI based microbroth dilution method; type: functional
Candida parapsilosis = assay: Antifungal activity against Candida parapsilosis ATCC 22019 assessed as inhibition of fungal growth incubated for 24 hrs by CLSI based microbroth dilution method; type: functional; conditions: Lodderomyces parapsilosis
Candida albicans [4] = assay: Potency index, ratio of fluconazole MIC to test compound MIC for antifungal activity against Candida albicans ATCC 90023 assessed as inhibition of fungal growth incubated for 24 hrs by CLSI based microbroth dilution method; type: functional
Candida albicans [5] = assay: Antifungal activity against Candida albicans measured after at 8 passages; type: functional, organism-based
Candida albicans [6] = assay: Antibiofilm activity against Candida albicans assessed as inhibition of biofilm formation at 0.5 to 8 microg/ml measured for 24 hrs by crystal violet staining based; type: functional; conditions: dose 0.5-8 µg/ml
Aspergillus fumigatus [7] = assay: Potency index, ratio of fluconazole MIC to test compound MIC for antifungal activity against Aspergillus fumigatus assessed as inhibition of fungal growth incubated for 24 hrs by CLSI based microbroth dilution method; type: functional
Cell membrane = assay: Induction of cell membrane potential loss in Candida albicans assessed as change in fluorescence intensity at 4 times MIC measured for 30 mins by DiSC3-5 dye based fluorescence method; type: subcellular

SMILES | MIC (Candida albicans [1]) | MIC (Candida albicans [2]) | MIC (Aspergillus fumigatus [3]) | MIC (Candida tropicalis) | MIC (Candida parapsilosis) | Ratio (Candida albicans [4]) | Activity (Candida albicans [5]) | inhibition (Candida albicans [6]) | Ratio (Aspergillus fumigatus [7]) | Activity (Cell membrane)
CCCCc1nc(Cl)c(/C=N/Nc2ccc3c4c(cccc24)C(=O)N(CCO)C3=O)n1Cc1cccc(Cl)c1 | 57 µM (≈ 32.2 µg/mL) | 2 µM (≈ 1.13 µg/mL) | 114 µM (≈ 64.3 µg/mL) | 28 µM (≈ 15.8 µg/mL) | 57 µM (≈ 32.2 µg/mL) | 16 |  |  |  | 
OC(Cn1cncn1)(Cn1cncn1)c1ccc(F)cc1F [FLUCONAZOLE] | 13 µM (≈ 3.98 µg/mL) | 33 µM (≈ 10.1 µg/mL) | 418 µM (≈ 128 µg/mL) | 13 µM (≈ 3.98 µg/mL) | 26 µM (≈ 7.96 µg/mL) |  | inactive | inactive |  | 
C[n+]1cccc(/C=N/Nc2ccc3c4c(cccc24)C(=O)N(CCO)C3=O)c1.[I-] | 32 µM | 16 µM | 8 µM | 64 µM | 127 µM |  |  |  | 52 | 
C/C(Cn1c([N+](=O)[O-])cnc1C)=N\Nc1ccc2c3c(cccc13)C(=O)N(c1ccc(Cl)cc1Cl)C2=O | 238 µM (≈ 128 µg/mL) | 953 µM (≈ 512 µg/mL) | 238 µM (≈ 128 µg/mL) | 238 µM (≈ 128 µg/mL) | 119 µM (≈ 63.9 µg/mL) |  |  |  |  | 
C=CCn1c(CCCC)nc(Cl)c1/C=N/Nc1ccc2c3c(cccc13)C(=O)N(CCO)C2=O | 67 µM (≈ 32.2 µg/mL) | 33 µM (≈ 15.8 µg/mL) | 17 µM (≈ 8.16 µg/mL) | 2 µM (≈ 0.96 µg/mL) | 134 µM (≈ 64.3 µg/mL) |  |  |  |  | 
C#CCn1c(CCCC)nc(Cl)c1/C=N/Nc1ccc2c3c(cccc13)C(=O)N(CCO)C2=O | 67 µM (≈ 32 µg/mL) | 17 µM (≈ 8.13 µg/mL) | 8 µM (≈ 3.82 µg/mL) | 2 µM (≈ 0.956 µg/mL) | 67 µM (≈ 32 µg/mL) |  |  |  |  | 
O=C1c2cccc3c(N/N=C/c4ccc[n+](Cc5ccc([N+](=O)[O-])cc5)c4)ccc(c23)C(=O)N1CCO | 56 µM | 56 µM | 111 µM | 111 µM | 14 µM |  |  |  |  | inactive
O=C1c2cccc3c(N/N=C/c4ccccn4)ccc(c23)C(=O)N1CCO | 355 µM (≈ 128 µg/mL) | 355 µM (≈ 128 µg/mL) | 355 µM (≈ 128 µg/mL) | 711 µM (≈ 256 µg/mL) | 711 µM (≈ 256 µg/mL) |  |  |  |  | 
CCCCCn1c(CCCC)nc(Cl)c1/C=N/Nc1ccc2c3c(cccc13)C(=O)N(CCO)C2=O | 251 µM (≈ 128 µg/mL) | 126 µM (≈ 64.3 µg/mL) | 63 µM (≈ 32.1 µg/mL) | 16 µM (≈ 8.16 µg/mL) | 251 µM (≈ 128 µg/mL) |  |  |  |  | 
CCCCc1nc(Cl)c(/C=N/Nc2ccc3c4c(cccc24)C(=O)N(CCO)C3=O)n1CC | 274 µM (≈ 128 µg/mL) | 137 µM (≈ 64.1 µg/mL) | 68 µM (≈ 31.8 µg/mL) | 34 µM (≈ 15.9 µg/mL) | 548 µM (≈ 256 µg/mL) |  |  |  |  | 
O=C1c2cccc3c(N/N=C/c4cccc(O)c4)ccc(c23)C(=O)N1CCO | 341 µM (≈ 128 µg/mL) | 341 µM (≈ 128 µg/mL) | 171 µM (≈ 64.2 µg/mL) | 682 µM (≈ 256 µg/mL) | 341 µM (≈ 128 µg/mL) |  |  |  |  | 
CCCCc1nc(Cl)c(/C=N/Nc2ccc3c4c(cccc24)C(=O)N(CCO)C3=O)n1Cc1ccccc1F | 58 µM (≈ 31.8 µg/mL) | 15 µM (≈ 8.22 µg/mL) | 58 µM (≈ 31.8 µg/mL) | 15 µM (≈ 8.22 µg/mL) | 15 µM (≈ 8.22 µg/mL) |  |  |  |  | 
C/C(Cn1c([N+](=O)[O-])cnc1C)=N\Nc1ccc2c3c(cccc13)C(=O)N(Cc1ccc(F)cc1)C2=O | 1020 µM (≈ 512 µg/mL) | 1020 µM (≈ 512 µg/mL) | 1020 µM (≈ 512 µg/mL) | 1020 µM (≈ 512 µg/mL) | 1020 µM (≈ 512 µg/mL) |  |  |  |  | 
O=C1c2cccc3c(N/N=C/c4nccs4)ccc(c23)C(=O)N1CCO | 699 µM (≈ 256 µg/mL) | 350 µM (≈ 128 µg/mL) | 350 µM (≈ 128 µg/mL) | 175 µM (≈ 64.1 µg/mL) | 175 µM (≈ 64.1 µg/mL) |  |  |  |  | 
C[n+]1ccc(/C=N/Nc2ccc3c4c(cccc24)C(=O)N(CCO)C3=O)cc1 | 16 µM | 8 µM | 127 µM | 255 µM | 64 µM |  |  |  |  | 
CCCCCCN1C(=O)c2cccc3c(N/N=C(\C)Cn4c([N+](=O)[O-])cnc4C)ccc(c23)C1=O | 1070 µM (≈ 512 µg/mL) | 1070 µM (≈ 512 µg/mL) | 1070 µM (≈ 512 µg/mL) | 1070 µM (≈ 512 µg/mL) | 1070 µM (≈ 512 µg/mL) |  |  |  |  | 
C/C(Cn1c([N+](=O)[O-])cnc1C)=N\Nc1ccc2c3c(cccc13)C(=O)N(c1ccc(F)c(Cl)c1)C2=O | 491 µM (≈ 256 µg/mL) | 983 µM (≈ 512 µg/mL) | 983 µM (≈ 512 µg/mL) | 246 µM (≈ 128 µg/mL) | 246 µM (≈ 128 µg/mL) |  |  |  |  | 
CCCCc1nc(Cl)c(/C=N/Nc2ccc3c4c(cccc24)C(=O)N(CCO)C3=O)n1Cc1ccc(Cl)cc1 | 57 µM (≈ 32.2 µg/mL) | 7 µM (≈ 3.95 µg/mL) | 57 µM (≈ 32.2 µg/mL) | 28 µM (≈ 15.8 µg/mL) | 57 µM (≈ 32.2 µg/mL) |  |  |  |  | 
CCCCc1nc(Cl)c(/C=N/Nc2ccc3c4c(cccc24)C(=O)N(CCO)C3=O)n1Cc1cccc(F)c1 | 117 µM (≈ 64.1 µg/mL) | 7 µM (≈ 3.84 µg/mL) | 58 µM (≈ 31.8 µg/mL) | 58 µM (≈ 31.8 µg/mL) | 29 µM (≈ 15.9 µg/mL) |  |  |  |  | 
